Values quoted from earlier work as cited in patent publication US8318788B2, “Layered pharmaceutical formulations” (priority 2006, dated 2012).
Values belong to the molecule of their own block, whether it stands above or below them.

What was measured:
[1] = patients presenting primary obesity

Compound: Cc1cc2c(s1)Nc1ccccc1N=C2N1CCN(C)CC1 [Olanzapine, 2-methyl-4-(4-methyl-1-piperazinyl)-10H-thieno[2,3-b][1,5]benzodiazepine]
effect of food on bioavailability (in vivo): not affected by food
first pass metabolism (in vivo): extensive first pass metabolism
kinetics (in vivo): linear kinetics
time until steady state plasma concentrations are achieved (in vivo): about a week

inhibitory effect on carbonic anhydrase (carbonic anhydrase): weak inhibitory effect
Compound: NS(=O)(=O)Cc1noc2ccccc12 [Zonisamide]
weight loss [1]: significant weight loss

bioavailability (in vivo): approximately 72%
physiological half life (in vivo): about 24 hours
plasma protein binding (mostly albumin): highly bound to plasma proteins
Compound: CNCCC(Oc1ccc(C(F)(F)F)cc1)c1ccccc1 (stereo not drawn) [Fluoxetine, N-methyl-3-phenyl-3-[4-(trifluoromethyl)phenoxy]-propan-1-amine]
